Laboratory results published in PubChem BioAssay AID2045 (NMMLSC, 2009).

Biological target: Ras-related protein Rab-2A (Canis lupus familiaris) (UniProt P61105)
Assay: Rab2A fluorescent GTP competition potency – biochemical, pyrazoline series, Bodipy-FL-GTP, flow cytometry, multiplex, SAR follow-up (AID 2045)
Conditions: Bead-based flow cytometry, Bodipy-FL-GTP binding to Rab2; Ki calculated from EC50

Ras-related protein Rab-2A (Canis lupus familiaris), sequence (P61105 whole entry, looked up): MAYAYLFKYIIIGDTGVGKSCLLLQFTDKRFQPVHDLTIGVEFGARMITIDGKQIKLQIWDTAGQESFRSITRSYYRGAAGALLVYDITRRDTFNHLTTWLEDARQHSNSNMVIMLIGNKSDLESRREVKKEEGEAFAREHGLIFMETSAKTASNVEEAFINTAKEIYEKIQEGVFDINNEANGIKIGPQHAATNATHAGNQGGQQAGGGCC

Structure (SMILES): COc1ccc(C2=NN(c3ccc(S(N)(=O)=O)cc3)C(c3ccc(OC)cc3)C2)cc1 (configuration not stated)
- Ki: 110 nM

Structure (SMILES): COc1ccc(C2=NN(c3cccc(F)c3)C(c3ccc(OC)cc3)C2)cc1 (configuration not stated)
- Ki: 60 nM
